Reference: article PMC11904221 (EMBO Molecular Medicine, 2025)
pEC50: −log10 of the molar value. Where “and” joins values, the source holds several entries; their conditions need not be identical. Equal values may be shown once.

Key:
[1] = system: aortic ring microvessel sprouting; assay: Aortic ring assay; design: species or system mouse; settings: 100 nM, VEGF 30 ng/ml
Excerpt: Angiogenesis is a complex intercellular process involving the organization of various cells.

[2] = system: MDA-MB-231 tumors; assay: Tumor blood flow, laser Doppler, MDA-MB-231 tumors; assay type: in vivo, mouse; settings: Bevacizumab 5 (mg/Kg), individual values
Excerpt: (§1) Tumor growth, apoptosis, proliferation, and/or the angiogenic index of the developed tumors were first evaluated.
(§2) (A) Scheme and workflow of apelin-dm preclinic studies. […] (B–D) Error bars indicate s.e.m. center values indicate mean (Mann–Whitney U test). […] The percentage of relative staining intensity corresponding to CD31, Ki67, and BIM expression in CT-26 and MC-38 tumors of treated mice are shown in (I–N). Scale bar, 100 µm. Data represent mean ± s.e.m. of 3–4 independent experiments. P values were calculated with the Student t test in GraphPad. […] Quantification of tumor area (P) and vascularized area (Q) relative to control untreated CAMs (n = 3 CAM per group) assigned 100%. Data represent mean ± s.e.m. P values were calculated with the Student t test in GraphPad. […] (S, T) The average blood flow expressed in % relative to blood flow measured in […] (S) and MDA-MB231 (T) developed tumors. Data represent mean ± s.e.m. of 3–4 independent experiments. P values were calculated with the Student t test in GraphPad. Source data are available online for this figure.
(§3) Additional experiments involved injecting 1 × 10^6 control CT-26/MC-38/MDA-MB231 cells into BALB/c, C57BL/6, or nude mice, respectively. […] LASER Doppler imaging assessed total blood flow, with FlowR® Hemodynamics visualization used for analysis. Results were expressed as % relative to pre-treatment tumor blood flow.

[3] = system: HCT116 tumors; assay: Tumor blood flow, laser Doppler, HCT116 tumors; assay type: in vivo, mouse; settings: Bevacizumab 5 (mg/Kg), individual values
Excerpt: as §1, §2, §3

[4] = system: HUVEC; assay: Tube-like formation assay; settings: read-out: EC50 (reduction of 50% of junction number); HUVEC on Geltrex, 18h treatment, 5 nM to 5 μM, GraphPad Prism
[5] = in vitro and in CAM assays; ref Ljoki et al, 2022; Ademi et al, 2021; cited from earlier work
[6] = system: HUVEC; assay: VEGF-induced migration of HUVECs; assay type: cell-based, human; settings: VEGF 30 ng/ml, apelin-dm 100 nM, individual values; control column 95-118
[7] = system: HUVEC; assay: HUVEC proliferation with VEGF, IncuCyte confluence; assay type: cell-based, human
Excerpt: Red arrows indicate the direction of vessel formation. […] All data are representative of three independent experiments. […] The two Furin cleavage sites are shown. […] (S–U) Plasmon waveguide resonance (PWR). […] Source data are available online for this figure.

[8] = system: ERK; settings: VEGF 30ng/mL, apelin-dm 100 nM, individual values n = 3

Substance	VEGF-induced aortic ring sprouting [1]	tumor blood flow, % relative [2]	tumor blood flow, % relative [3]	pEC50 [4]	concentration with inhibitory effects [5]	HUVEC migration [6]	HUVEC confluence ([7]; 0 h, VEGF 30 ng/ml or apelin-dm 100 nM, means, n = 6 wells)	HUVEC confluence ([7]; 24 h)	HUVEC confluence ([7]; 48 h)	HUVEC confluence ([7]; 72 h)	HUVEC confluence ([7]; 96 h)	HUVEC confluence ([7]; 120 h)	ERK phosphorylation relative to control untreated HUVEC assigned 100% [8]
Bevacizumab	apelin-dm was comparable in effect to Bevacizumab	82 and 75 and 69 and 51	86 and 65 and 70 and 63 and 59	7.08 and 6.89	around 100 nM	–	–	–	–	–	–	–	–
VEGF	–	–	–	–	–	160 and 250 and 188 and 208 and 299 and 320 and 199	10	19	33	55	75	82	144.293 and 157.045 and 122.733
